In the NIST ThermoML archive (doi:10.1016/j.jct.2010.05.002):

Conditions: for vapor or sublimation pressure: Transpiration method; for Triple point temperature: Adiabatic calorimetry

CC(C)(C)c1ccc(-c2ccccc2)cc1 [4-(1,1-dimethylethyl)-1,1'-biphenyl]
Conditions | vapor or sublimation pressure [kPa]
301 K, Crystal | 8.2e-05
303.9 K, Crystal | 0.000119
305.9 K, Crystal | 0.000156
307.9 K, Crystal | 0.000203
310.9 K, Crystal | 0.000285
312.9 K, Crystal | 0.000369
313.8 K, Crystal | 0.000417
315.8 K, Crystal | 0.000507
318.8 K, Crystal | 0.000708
319.8 K, Crystal | 0.000814
320.2 K, Crystal | 0.000843
321.7 K, Crystal | 0.001012
322.7 K, Crystal | 0.001146
323.2 K, Crystal | 0.001207
325.2 K, Crystal | 0.0015
326.2 K, Crystal | 0.00168
327.4 K, Liquid | 0.00187
331.5 K, Liquid | 0.00263
334.4 K, Liquid | 0.00326
336.6 K, Liquid | 0.00389
338 K, Liquid | 0.00428
338.8 K, Liquid | 0.00465
340.5 K, Liquid | 0.00532
341.6 K, Liquid | 0.00563
343.7 K, Liquid | 0.00682
343.8 K, Liquid | 0.00673
346.6 K, Liquid | 0.00813
347.2 K, Liquid | 0.00852
347.6 K, Liquid | 0.00864
348.8 K, Liquid | 0.00962
349.8 K, Liquid | 0.0103
350.4 K, Liquid | 0.0106
352.8 K, Liquid | 0.01272
354.8 K, Liquid | 0.01441
357.4 K, Liquid | 0.01733
360.2 K, Liquid | 0.02099
362.6 K, Liquid | 0.025
364.9 K, Liquid | 0.02919
367.4 K, Liquid | 0.03524
370 K, Liquid | 0.04103
371.2 K, Liquid | 0.04325
372.6 K, Liquid | 0.04776
373.9 K, Liquid | 0.05134
375.3 K, Liquid | 0.05672
376.7 K, Liquid | 0.05953
378 K, Liquid | 0.06614

Conditions | Triple point temperature [K]
Crystal | 324.76

Cc1ccc(-c2ccccc2)cc1 [4-methylbiphenyl]
Liquid
Conditions | vapor or sublimation pressure [kPa]
323.2 K | 0.00854
325.4 K | 0.01016
327.2 K | 0.01156
329.7 K | 0.01376
332.2 K | 0.01664
334.6 K | 0.01979
336.2 K | 0.02224
338.7 K | 0.02634
341.6 K | 0.03282
344.1 K | 0.03851
346.4 K | 0.04496
349 K | 0.05244
351.2 K | 0.06003
353.2 K | 0.0695

Conditions | Triple point temperature [K]
Crystal | 320.33
